According to ChEMBL document CHEMBL5052840, “Pharmaceutical compounds and therapeutic methods” (2020):
Calls of active or inactive are those of the source. The calls are words filed in the database; no cut-off is given here.

Experiments:
[1] = biological target: T1, Polycomb complex protein BMI-1 (Homo sapiens) (UniProt P35226); experiment: Inhibition of BMI1 in human Glioblastoma cell 3D spheres at 7 to 10 nM assessed as reduction in BMI1 protein levels measured by Western blotting method; type: cell-based; conditions: Glioblastoma cell line, dose 7-10 nM
T1 sequence (whole entry): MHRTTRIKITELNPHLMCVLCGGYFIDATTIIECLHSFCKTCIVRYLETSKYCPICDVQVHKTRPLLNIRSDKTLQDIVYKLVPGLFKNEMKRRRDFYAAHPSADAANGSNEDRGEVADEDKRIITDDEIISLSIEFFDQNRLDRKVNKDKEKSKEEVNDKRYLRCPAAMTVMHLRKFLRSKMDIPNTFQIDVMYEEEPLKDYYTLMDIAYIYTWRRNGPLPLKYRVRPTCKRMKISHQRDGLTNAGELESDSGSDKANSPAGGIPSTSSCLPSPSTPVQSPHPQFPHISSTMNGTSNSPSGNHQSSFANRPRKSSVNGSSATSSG

[2] = Brain concentration in male C57BL/6 mouse at 10 mg/kg, ip administered as single dose measured at 1 hr measured by LC/MS-MS analysis; type: ADME, organism-based; conditions: read-out: Drug uptake
[3] = Ratio of drug level in male C57BL/6 mouse brain to plasma at 10 mg/kg, po administered as single dose measured at 1 hr measured by LC/MS-MS analysis; type: ADME, organism-based; conditions: read-out: BPR
[4] = Efflux ratio of apparent permeability across basolateral to apical membrane over apical to basolateral membrane in human Caco-2 cells measured by LC-MS analysis; type: ADME, cell-based
[5] = Ratio of drug level in male C57BL/6 mouse brain to plasma at 10 mg/kg, ip administered as single dose measured at 1 hr measured by LC/MS-MS analysis; type: ADME, organism-based; conditions: read-out: BPR
[6] = Plasma concentration in male C57BL/6 mouse at 10 mg/kg, iv administered as single dose measured at 1 hr measured by LC/MS-MS analysis; type: ADME, organism-based
[7] = Ratio of drug level in male C57BL/6 mouse brain to plasma at 10 mg/kg, po administered as single dose measured at 0.08 hrs measured by LC/MS-MS analysis; type: ADME, organism-based; conditions: read-out: BPR
[8] = Plasma concentration in male C57BL/6 mouse at 10 mg/kg, iv administered as single dose measured at 0.35 hrs measured by LC/MS-MS analysis; type: ADME, organism-based
[9] = Brain concentration in male C57BL/6 mouse at 10 mg/kg, ip administered as single dose measured at 6 hrs measured by LC/MS-MS analysis; type: ADME, organism-based; conditions: read-out: Drug uptake
[10] = Plasma concentration in male C57BL/6 mouse at 10 mg/kg, ip administered as single dose measured at 0.08 hrs measured by LC/MS-MS analysis; type: ADME, organism-based
[11] = Ratio of drug level in male C57BL/6 mouse brain to plasma at 10 mg/kg, iv administered as single dose measured at 6 hrs measured by LC/MS-MS analysis; type: ADME, organism-based; conditions: read-out: BPR
[12] = Plasma concentration in male C57BL/6 mouse at 10 mg/kg, ip administered as single dose measured at 0.35 hrs measured by LC/MS-MS analysis; type: ADME, organism-based
[13] = Ratio of drug level in male C57BL/6 mouse brain to plasma at 10 mg/kg, iv administered as single dose measured at 3 hrs measured by LC/MS-MS analysis; type: ADME, organism-based; conditions: read-out: BPR
[14] = Ratio of drug level in male C57BL/6 mouse brain to plasma at 10 mg/kg, iv administered as single dose measured at 1 hr measured by LC/MS-MS analysis; type: ADME, organism-based; conditions: read-out: BPR
[15] = Brain concentration in male C57BL/6 mouse at 10 mg/kg, iv administered as single dose measured at 3 hrs measured by LC/MS-MS analysis; type: ADME, organism-based; conditions: read-out: Drug uptake
[16] = Brain concentration in male C57BL/6 mouse at 10 mg/kg, ip administered as single dose measured at 0.08 hrs measured by LC/MS-MS analysis; type: ADME, organism-based; conditions: read-out: Drug uptake
[17] = Brain concentration in male C57BL/6 mouse at 10 mg/kg, iv administered as single dose measured at 6 hrs measured by LC/MS-MS analysis; type: ADME, organism-based; conditions: read-out: Drug uptake
[18] = Brain concentration in male C57BL/6 mouse at 10 mg/kg, iv administered as single dose measured at 0.35 hrs measured by LC/MS-MS analysis; type: ADME, organism-based; conditions: read-out: Drug uptake
[19] = Ratio of drug level in male C57BL/6 mouse brain to plasma at 10 mg/kg, po administered as single dose measured at 3 hrs measured by LC/MS-MS analysis; type: ADME, organism-based; conditions: read-out: BPR
[20] = Plasma concentration in male C57BL/6 mouse at 10 mg/kg, ip administered as single dose measured at 3 hrs measured by LC/MS-MS analysis; type: ADME, organism-based
[21] = Plasma concentration in male C57BL/6 mouse at 10 mg/kg, po administered as single dose measured at 6 hrs measured by LC/MS-MS analysis; type: ADME, organism-based
[22] = biological target: T1, Polycomb complex protein BMI-1 (Homo sapiens); experiment: Inhibition of BMI1 in human Glioblastoma cell 3D spheres at 7 to 10 nM assessed as reduction in STAT1 levels measured by Western blotting method; type: cell-based; conditions: Glioblastoma cell line, dose 7-10 nM
[23] = Plasma concentration in male C57BL/6 mouse at 10 mg/kg, ip administered as single dose measured at 1 hr measured by LC/MS-MS analysis; type: ADME, organism-based
[24] = Ratio of drug level in male C57BL/6 mouse brain to plasma at 10 mg/kg, iv administered as single dose measured at 0.35 hrs measured by LC/MS-MS analysis; type: ADME, organism-based; conditions: read-out: BPR
[25] = Plasma concentration in male C57BL/6 mouse at 10 mg/kg, po administered as single dose measured at 1 hr measured by LC/MS-MS analysis; type: ADME, organism-based
[26] = Ratio of drug level in male C57BL/6 mouse brain to plasma at 10 mg/kg, ip administered as single dose measured at 3 hrs measured by LC/MS-MS analysis; type: ADME, organism-based; conditions: read-out: BPR
[27] = Ratio of drug level in male C57BL/6 mouse brain to plasma at 10 mg/kg, po administered as single dose measured at 0.35 hrs measured by LC/MS-MS analysis; type: ADME, organism-based; conditions: read-out: BPR
[28] = Brain concentration in male C57BL/6 mouse at 10 mg/kg, iv administered as single dose measured at 1 hr measured by LC/MS-MS analysis; type: ADME, organism-based; conditions: read-out: Drug uptake
[29] = Brain concentration in male C57BL/6 mouse at 10 mg/kg, ip administered as single dose measured at 12 hrs measured by LC/MS-MS analysis; type: ADME, organism-based; conditions: read-out: Drug uptake
[30] = Brain concentration in male C57BL/6 mouse at 10 mg/kg, po administered as single dose measured at 3 hrs measured by LC/MS-MS analysis; type: ADME, organism-based; conditions: read-out: Drug uptake
[31] = Ratio of drug level in male C57BL/6 mouse brain to plasma at 10 mg/kg, iv administered as single dose measured at 0.08 hrs measured by LC/MS-MS analysis; type: ADME, organism-based; conditions: read-out: BPR
[32] = Plasma concentration in male C57BL/6 mouse at 10 mg/kg, po administered as single dose measured at 0.35 hrs measured by LC/MS-MS analysis; type: ADME, organism-based
[33] = biological target: T1, Polycomb complex protein BMI-1 (Homo sapiens); experiment: Inhibition of BMI1 in human Glioblastoma cell 3D spheres at 7 to 10 nM assessed as reduction in phospho-RB levels measured by Western blotting method; type: cell-based; conditions: Glioblastoma cell line, dose 7-10 nM

## Cc1nc2ccccn2c1-c1csc(Nc2ccc3c(c2)OC(F)(F)O3)n1.Cl
[1]
  inhibition: Active
[2]
  concentration at 1 h: 159 ng/g
[3]
  Kp at 1 h: 2.01
[4]
  Ratio: 0.9
[5]
  Kp at 1 h: 2.78
[6]
  concentration at 1 h: 80.7 ng/mL
[7]
  Kp at 0.08 h: 0.78
[8]
  concentration at 0.35 h: 535 ng/mL
[9]
  concentration at 6 h: 680 ng/g
[10]
  concentration at 0.08 h: 713 ng/mL
[11]
  Kp at 6 h: 1.81
[12]
  concentration at 0.35 h: 426 ng/mL
[13]
  Kp at 3 h: 1.73
[14]
  Kp at 1 h: 1.67
[15]
  concentration at 3 h: 9.01 ng/g
[16]
  concentration at 0.08 h: 558 ng/g
[17]
  concentration at 6 h: 5.13 ng/g
[18]
  concentration at 0.35 h: 514 ng/g
[19]
  Kp at 3 h: 4.34
[20]
  concentration at 3 h: 1.43 ng/mL
[21]
  concentration at 6 h: 2.5 ng/mL
[22]
  inhibition: Active
[23]
  concentration at 1 h: 79.1 ng/mL
[24]
  Kp at 0.35 h: 1.83
[25]
  concentration at 1 h: 29.3 ng/mL
[26]
  Kp at 3 h: 1.6
[27]
  Kp at 0.35 h: 1.6
[28]
  concentration at 1 h: 225 ng/g
[29]
  concentration at 12 h: 159 ng/g
[30]
  concentration at 3 h: 5.78 ng/g
[31]
  Kp at 0.08 h: 1.07
[32]
  concentration at 0.35 h: 138 ng/mL
[33]
  inhibition: Active
